Test results: the supplement of paper PMC10307832

Tests used:
Assay in all cases: relative viability (nuclei count vs DMSO), 5 days (fraction); higher = more cells survive
[1] = compound: CC1=CC(=CC=C1)NC2=NC(=CS2)C3=CC=NC=C3 + COc1cccc2cc(-c3nc([C@H]4CC[C@H](C(=O)O)CC4)n4ncnc(N)c34)[nH]c12 [OSI-027] (partner 0.5 µM)
Summary of the method: (§1)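 One day after seeding in 1536-well plates, lung cancer cell lines were dosed by pin tool. Dosing was either single-drug or a fixed anchor-drug dose plus five library-drug doses (not always all listed) in √10 steps. After 5 days, nuclei were stained in one fix-and-stain step and counted on 4× images, and relative viability is the nuclei count of treated wells over that of vehicle wells, given as the median of duplicate plates.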

Masitinib + Lapatinib = compound: Cc1ccc(NC(=O)c2ccc(CN3CCN(C)CC3)cc2)cc1Nc1nc(-c2cccnc2)cs1 [Masitinib] + CS(=O)(=O)CCNCc1ccc(-c2ccc3ncnc(Nc4ccc(OCc5cccc(F)c5)c(Cl)c4)c3c2)o1 [Lapatinib] (partner 2 µM)
Summary of the method: as §1

Masitinib + Dasatinib = compound: Cc1ccc(NC(=O)c2ccc(CN3CCN(C)CC3)cc2)cc1Nc1nc(-c2cccnc2)cs1 [Masitinib] + Cc1nc(Nc2ncc(C(=O)Nc3c(C)cccc3Cl)s2)cc(N2CCN(CCO)CC2)n1 [Dasatinib] (partner 0.075 µM)
Summary of the method: as §1

[2] = compound: CC1=CC(=CC=C1)NC2=NC(=CS2)C3=CC=NC=C3 + CS(=O)(=O)N1CCN(Cc2cc3nc(-c4cccc5[nH]ncc45)nc(N4CCOCC4)c3s2)CC1 [Pictilisib] (partner 1 µM)
Summary of the method: as §1

Cell Line	relative viability ([1]; first compound 0.08 µM)	relative viability ([1]; first compound 0.253 µM)	relative viability ([1]; first compound 0.8 µM)	relative viability ([1]; first compound 2.53 µM)	relative viability ([1]; first compound 8 µM)	relative viability (Masitinib + Lapatinib; first compound 0.01 µM)	relative viability (Masitinib + Lapatinib; first compound 0.03162 µM)	relative viability (Masitinib + Lapatinib; first compound 0.1 µM)	relative viability (Masitinib + Lapatinib; first compound 0.3162 µM)	relative viability (Masitinib + Lapatinib; first compound 1 µM)	relative viability (Masitinib + Dasatinib; first compound 0.03162 µM)	relative viability (Masitinib + Dasatinib; first compound 0.3162 µM)	relative viability (Masitinib + Dasatinib; first compound 1 µM)	relative viability ([2]; first compound 0.08 µM)	relative viability ([2]; first compound 0.253 µM)	relative viability ([2]; first compound 0.8 µM)	relative viability ([2]; first compound 2.53 µM)	relative viability ([2]; first compound 8 µM)	relative viability (Masitinib + Dasatinib; first compound 0.01 µM)	relative viability (Masitinib + Dasatinib; first compound 0.1 µM)
HCC-366	0.723	0.744	0.959	0.833	0.461	0.731	1.1	0.785	0.945	1.13	0.654	0.619	0.609	0.146	0.11	0.132	0.157	0.121		
NCI-H1793	0.238	0.25	0.315	0.249	0.217	0.631	0.633	0.594	0.456	0.575	0.398	0.356	0.462		0.326	0.357	0.22	0.264	0.415	0.396
NCI-H727		0.412	0.597	0.618	0.568	0.923	0.95	0.857	0.914	0.68	0.315	0.383	0.35	0.26	0.287	0.313	0.343	0.375	0.332	0.346
RERF-LC-KJ	0.512	0.572	0.569	0.415	0.37	0.94	0.705	0.83	0.73	0.719	0.806	0.667	0.702	0.509	0.49	0.541	0.472	0.497	0.881	0.975
NCI-H1623	0.444	0.359	0.391	0.405	0.384						0.446	0.453	0.43						0.488	0.551
Calu-6						1.05	1.01	1.25	0.938	1.05				0.796	0.718	0.659	0.815	0.803		
LC-2-ad	0.785		0.74	0.79	0.728	0.762	1.02	0.874	0.994	0.962	0.587	0.523	0.554	0.365	0.366	0.478	0.369	0.436	0.47	0.639
CAL-12T	0.45	0.546	0.542	0.469	0.528	0.612	0.729	0.745	0.592	0.499	0.381	0.306	0.374	0.286		0.557	0.261	0.388	0.452	0.34
SK-LU-1	0.32	0.374		0.348	0.273	0.928	0.853	1.04	0.986	0.779	0.202	0.195	0.18	0.527	0.575		0.586	0.626	0.157	0.174
